According to patent publication US9962383B2, “Compounds, compositions and methods of agelastatin alkaloids” (Massachusetts Institute of Technology, priority 2013, dated 2018):

Tested on: HeLa
Assay: 48-hour IC50 by SRB, HeLa cervical carcinoma cells
Type: cell-based, human
Settings: not given
Description: (§1) Cells were grown in media supplemented with fetal bovine serum (FBS) and antibiotics (100 μg/mL penicillin and 100 U/mL streptomycin). […] Cells were incubated at 37° C. in a 5% CO2, 95% humidity atmosphere.
(§2) Adherent cells (HeLa, A549, BT549, and IMR90) were added into 96-well plates (5,000 cells/well for HeLa cell line; 2,000 cells/well for A549, BT549, and IMR90 cell lines) in 100 μL media and were allowed to adhere for 2-3 hours. Compounds were solubilized in DMSO as 100× stocks, added directly to the cells (100 μL final volume), and tested over a range of concentrations (1 nM to 10 μM) in triplicate (1% DMSO final) on a half-log scale. DMSO and cell-free wells served as the live and dead control, respectively. […] Briefly, media was removed from the plate, and cells were fixed by the addition of 100 μL cold 10% trichloroacetic acid in water. After incubating at 4° C. for 1 h, the plates were washed in water and allowed to dry. Sulforhordamine B was added as a 0.057% solution in 1% acetic acid (100 μL), and the plates were incubated at room temperature for 30 min, washed in 1% acetic acid, and allowed to dry. […] IC50 values were determined from three or more independent experiments using TableCurve (San Jose, Calif.).

SMILES | IC50
O=C1N[C@H]2[C@@H]3NC(=O)c4cc(Br)c(Br)n4[C@@H]3C[C@@]2(O)N1 [(−)-6, (−)-agelastatin F] | > 10000 nM
O=C1N[C@H]2[C@@H]3NC(=O)c4ccc(Br)n4[C@@H]3C[C@@]2(O)N1 [(−)-4, (−)-agelastatin D] | 1000 ± 200 nM

Same assay, conditions: Homo sapiens

IC50 | SMILES
> 10000 nM | CO[C@H]1NC(=O)c2ccc(Br)n2[C@@H]1Cc1c[nH]c(=O)n1C [(+)-39, (+)-O-methyl-pre-agelastatin A]

Tested on: tubulin dynamics
Assay: Tubulin microscopy with HeLa cells
Type: cell-based, human
Settings: 16 hours, confocal microscopy
Description: HeLa cells were treated with compound for 16 hours, fixed, stained, and visualized using confocal microscopy.
Round, 1.5 mm coverslips (No. 1.5) were sterilized with ultraviolet light and placed in a 12-well plate. HeLa cells (100,000 cells/well) were added and allowed to adhere for eight hours. Compounds were then added as DMSO stocks to achieve a final DMSO concentration of 1%, and the plates were returned to the incubator for 16 hours.
Following incubation, the media was removed, and the coverslips were fixed with 0.5 mL Microtubulin Stabilizing Buffer (MTSB, 80 mM PIPES, pH 6.8, 1 mM MgCl2, 5 mM EGTA, 0.5% TX-100)+0.5% glutaraldehyde for 10 minutes at room temperature, after which the fixative was removed and the sample was quenched with the addition of 0.5 mL of freshly-prepared 1 mg/mL NaBH4 in PBS. After a 5 min incubation, the solution was removed by aspiration and the coverslips were washed with PBS.
Coverslips were transferred to parafilm-lined culture dishes (cell-side up), and 40 μL of 50 μg/mL RNase A in Antibody Diluting Solution (AbDil, PBS, pH 7.4, 0.2% TX-100, 2% BSA, 0.1% NaN3) with 1:50 dilution of anti-α-tubulin-FITC antibody was added to all samples. The samples were allowed to incubate at room temperature in the dark for 2.5 hours, after which the coverslips were washed three times with PBS+0.1% TX-100. […]

SMILES | effect on tubulin dynamics
O=C1N[C@H]2[C@@H]3NC(=O)c4ccc(Br)n4[C@@H]3C[C@@]2(O)N1 [(−)-4, (−)-agelastatin D] | do not affect tubulin dynamics

Tested on: human cell lines (U-937, HeLa, A549, BT549, IMR90)
Assay: Ability to induce cell death in the panel of five human cell lines (Table 3)
Type: cell-based
Settings: 48-hour exposure, 1 nM to 10 μM, cell lines of Table 3
Description: Six (−)-agelastatins along with eight closely related derivatives prepared in the above examples were tested (Table 3). The six (−)-agelastatin alkaloids (1-6, respectively), (−)-O-methyl-di-epi-agelastatin A (50), (−)-dehydroagelastatin A (51), (−)-di-epi-agelastatin C (52), (+)-O-methyl-pre-agelastatin A and D (39 and 53, respectively), along with bicyclic pyrroles (+)-44, (+)-45, and triazone (+)-48 were tested for their ability to induce cell death in four human cancer cell lines (U-937, lymphoma; HeLa, cervical carcinoma; A549, non-small cell lung carcinoma; and BT549, breast carcinoma) and one immortalized normal human cell line (IMR90, lung fibroblasts) after a 48-hour exposure. […] Furthermore, enhanced activities in U-937 (20×) cell relative to the other cell lines (Table 3) were observed.
Adherent cells (HeLa, A549, BT549, and IMR90) were added into 96-well plates (5,000 cells/well for HeLa cell line; 2,000 cells/well for A549, BT549, and IMR90 cell lines) in 100 μL media and were allowed to adhere for 2-3 hours. Compounds were solubilized in DMSO as 100× stocks, added directly to the cells (100 μL final volume), and tested over a range of concentrations (1 nM to 10 μM) in triplicate (1% DMSO final) on a half-log scale. DMSO and cell-free wells served as the live and dead control, respectively. After 48 h of continuous exposure, the plates were evaluated using the SRB colorimetric assay as described previously (V. Vichai, K. Kirtikara, Nature Prot., 2006, 1, 1112). Briefly, media was removed from the plate, and cells were fixed by the addition of 100 μL cold 10% trichloroacetic acid in water. After incubating at 4° C. for 1 h, the plates were washed in water and allowed to dry. Sulforhordamine B was added as a 0.057% solution in 1% acetic acid (100 μL), and the plates were incubated at room temperature for 30 min, washed in 1% acetic acid, and allowed to dry. The dye was solubilized by adding 10 mM Tris base solution (pH 10.5, 200 μL) and incubating at room temperature for 30 min Plates were read at λ=510 nm. IC50 values were determined from three or more independent experiments using TableCurve (San Jose, Calif.).
In a 96-well plate, compounds were pre-added as DMSO stocks (1% final) in triplicate to achieve final concentrations of 1 nM to 10 μM on a half log scale. DMSO and cell-free wells served as the live and dead control, respectively. Suspension cells (U-937, CEM, CA46, Daudi, HL-60, and Jurkat; 10,000 cells/well) cells were distributed in 100 μL media to the compound-containing plate. After 48 h, cell viability was assessed by adding 20 μL of a PMS/MTS solution (A. H. Cory, T. C. Owen, J. A. Barltrop, J. G. Cory, Cancer Commun., 1991, 3, 207) to each well, allowing the dye to develop at 37° C. until the live control had processed MTS, and reading the absorbance at λ=490 nm. IC50 values were determined from three or more independent experiments using TableCurve (San Jose, Calif.).

SMILES | activity (ability to induce cell death) in words
CO[C@H]1NC(=O)c2ccc(Br)n2[C@@H]1Cc1c[nH]c(=O)n1C [(+)-39, (+)-O-methyl-pre-agelastatin A] | None
O=C1N[C@H]2[C@@H]3NC(=O)c4cc(Br)c(Br)n4[C@@H]3C[C@@]2(O)N1 [(−)-6, (−)-agelastatin F] | little activity at the concentrations examined

Same assay, conditions: (−)-2 vs (−)-1, (−)-6 vs (−)-4, D (4) and E (5) vs A (1); Table 3 data

SMILES | reduction in anticancer potency relative to the compared agelastatin
O=C1N[C@H]2[C@@H]3NC(=O)c4ccc(Br)n4[C@@H]3C[C@@]2(O)N1 [(−)-4, (−)-agelastatin D] | 1-5 fold

Tested on: synchronized U-937 cells
Assay: Cell cycle arrest in thymidine-synchronized U-937 cells
Type: cell-based, human
Settings: 16 hours, PI, flow cytometry
Description: Samples were fixed, treated with an RNAse, stained with PI, and analyzed by flow cytometry. Taxol, a microtubule stabilizer, was used as a positive control. Error bars represent standard deviation of the mean, n=3. * p<0.01. PI=propidium iodide.
U-937 cells were split to 50% confluency (250,000 cells/mL) and treated with 2 mM thymidine for 10 hours. The cells were then pelleted (500 g, 3 minutes) and washed with PBS before being resuspended in thymidine-free media and allowed to recover for 13 hours. The cells were then re-blocked with 2 mM thymidine for 10 hours, and then washed with PBS as before and resuspended in media (250,000 cells/mL).
DMSO stocks of compounds were added to a 24-well plate in triplicate (0.2% DMSO final), after which 1 mL of the prepared cell suspension was added. Following a 16 h incubation, the cell suspensions were transferred to 2 mL tubes and pelleted (600 g, 3 min). The media was removed by aspiration, and the cells were fixed with 0.5 mL of ice cold 70% ethanol with vortexing. The samples were fully fixed at −20° C. for 3 hours. The samples were then pelleted (1000 g, 5 min) and the supernatant was removed via aspiration. […] Prior to reading, the samples were taken up in 150 μL of 50 μg/mL propidium iodide in PBS and transferred to flow cytometry tubes. Samples were analyzed based on whole, single cells.

SMILES | G2/M cell cycle arrest
O=C1N[C@H]2[C@@H]3NC(=O)c4ccc(Br)n4[C@@H]3C[C@@]2(O)N1 [(−)-4, (−)-agelastatin D] | dose-dependent G2/M cell cycle arrest

Tested on: U-937 cells
Assay: Apoptosis in U-937 cells with Annexin V-FITC and propidium iodide
Type: cell-based, human
Settings: 21 hours, flow cytometry
Description: FIG. 3. […] Analysis of phosphatidylserine exposure and propidium iodide inclusion at 21 hours in U-937 cells. Compounds were tested at indicated concentrations and STS was used as a positive control for apoptosis. Samples were analyzed by flow cytometry for the relative timing of phosphatidylserine exposure relative to PI inclusion. FITC=fluorescein isothiocyanate; PI=propidium iodide; STS=staurosporine.
DMSO stocks of compounds were added to a 24-well plate in singlicate (0.2% DMSO final). […] Following treatment, the cell suspensions were transferred to flow cytometry tubes and pelleted (500 g, 3 min). The media was removed by aspiration, and cells were resuspended in 200 μL AnnV binding buffer (10 mM HEPES, pH 7.4, 140 mM NaCl, 2.5 mM CaCl2) with 5 μg/mL PI and 1:90 dilution of AnnV. Samples were analyzed using flow cytometry.

SMILES | apoptosis (phosphatidylserine exposure and propidium iodide inclusion)
O=C1N[C@H]2[C@@H]3NC(=O)c4ccc(Br)n4[C@@H]3C[C@@]2(O)N1 [(−)-4, (−)-agelastatin D] | induced dose-dependent apoptosis

Tested on: HL-60
Assay: 48-hour IC50 by MTS, HL-60 acute promyelocytic leukemia cells
Type: cell-based, human
Settings: not given
Description: as §1
(§3) In a 96-well plate, compounds were pre-added as DMSO stocks (1% final) in triplicate to achieve final concentrations of 1 nM to 10 μM on a half log scale. DMSO and cell-free wells served as the live and dead control, respectively. […] IC50 values were determined from three or more independent experiments using TableCurve (San Jose, Calif.).

SMILES | IC50
O=C1N[C@H]2[C@@H]3NC(=O)c4cc(Br)c(Br)n4[C@@H]3C[C@@]2(O)N1 [(−)-6, (−)-agelastatin F] | > 10000 nM
O=C1N[C@H]2[C@@H]3NC(=O)c4ccc(Br)n4[C@@H]3C[C@@]2(O)N1 [(−)-4, (−)-agelastatin D] | 540 ± 120 nM

Tested on: BT549
Assay: 48-hour IC50 by SRB, BT549 breast carcinoma cells
Type: cell-based, human
Settings: not given
Description: as §1, §2

SMILES | IC50
O=C1N[C@H]2[C@@H]3NC(=O)c4cc(Br)c(Br)n4[C@@H]3C[C@@]2(O)N1 [(−)-6, (−)-agelastatin F] | > 10000 nM
O=C1N[C@H]2[C@@H]3NC(=O)c4ccc(Br)n4[C@@H]3C[C@@]2(O)N1 [(−)-4, (−)-agelastatin D] | 631 ± 82 nM

Same assay, conditions: Homo sapiens, BT-549

IC50 | SMILES
> 10000 nM | CO[C@H]1NC(=O)c2ccc(Br)n2[C@@H]1Cc1c[nH]c(=O)n1C [(+)-39, (+)-O-methyl-pre-agelastatin A]

Tested on: procaspase-3 and PARP-1 cleavage
Assay: Western blot analysis of procaspase-3 and PARP-1 cleavage in U-937 cells
Type: cell-based, human
Settings: 24 hours
Description: FIG. 2. […] Western blot analysis of procaspase-3 and PARP-1 cleavage at 24 hours in U-937 cells using β-actin as loading control. Compounds were tested at indicated concentrations and STS (10 nM); C3=caspase-3; PARP=poly(ADP-ribose) polymerase 1; PC3=procaspase-3; STS=staurosporine.

SMILES | activation of procaspase-3 to active caspase-3 and cleavage of PARP-1
O=C1N[C@H]2[C@@H]3NC(=O)c4ccc(Br)n4[C@@H]3C[C@@]2(O)N1 [(−)-4, (−)-agelastatin D] | dose-dependent activation

Tested on: Jurkat
Assay: 48-hour IC50 by MTS, Jurkat acute T-cell leukemia cells
Type: cell-based, human
Settings: not given
Description: as §1, §3

SMILES | IC50
O=C1N[C@H]2[C@@H]3NC(=O)c4cc(Br)c(Br)n4[C@@H]3C[C@@]2(O)N1 [(−)-6, (−)-agelastatin F] | > 10000 nM
O=C1N[C@H]2[C@@H]3NC(=O)c4ccc(Br)n4[C@@H]3C[C@@]2(O)N1 [(−)-4, (−)-agelastatin D] | 210 ± 63 nM

Tested on: A549
Assay: 48-hour IC50 by SRB, A549 non-small cell lung carcinoma cells
Type: cell-based, human
Settings: not given
Description: as §1, §2

SMILES | IC50
O=C1N[C@H]2[C@@H]3NC(=O)c4cc(Br)c(Br)n4[C@@H]3C[C@@]2(O)N1 [(−)-6, (−)-agelastatin F] | > 10000 nM
O=C1N[C@H]2[C@@H]3NC(=O)c4ccc(Br)n4[C@@H]3C[C@@]2(O)N1 [(−)-4, (−)-agelastatin D] | 920 ± 160 nM

Same assay, conditions: Homo sapiens

IC50 | SMILES
> 10000 nM | CO[C@H]1NC(=O)c2ccc(Br)n2[C@@H]1Cc1c[nH]c(=O)n1C [(+)-39, (+)-O-methyl-pre-agelastatin A]

Tested on: U-937
Assay: 48-hour IC50 by MTS, U-937 lymphoma cells
Type: cell-based, human
Settings: not given
Description: as §1, §3

SMILES | IC50
O=C1N[C@H]2[C@@H]3NC(=O)c4cc(Br)c(Br)n4[C@@H]3C[C@@]2(O)N1 [(−)-6, (−)-agelastatin F] | > 10000 nM
O=C1N[C@H]2[C@@H]3NC(=O)c4ccc(Br)n4[C@@H]3C[C@@]2(O)N1 [(−)-4, (−)-agelastatin D] | 240 ± 33 nM

Same assay, conditions: Homo sapiens

IC50 | SMILES
> 10000 nM | CO[C@H]1NC(=O)c2ccc(Br)n2[C@@H]1Cc1c[nH]c(=O)n1C [(+)-39, (+)-O-methyl-pre-agelastatin A]

Tested on: CA46
Assay: 48-hour IC50 by MTS, CA46 Burkitt's lymphoma cells
Type: cell-based, human
Settings: not given
Description: as §1, §3

SMILES | IC50
O=C1N[C@H]2[C@@H]3NC(=O)c4cc(Br)c(Br)n4[C@@H]3C[C@@]2(O)N1 [(−)-6, (−)-agelastatin F] | > 10000 nM
O=C1N[C@H]2[C@@H]3NC(=O)c4ccc(Br)n4[C@@H]3C[C@@]2(O)N1 [(−)-4, (−)-agelastatin D] | 460 ± 240 nM

Tested on: IMR90
Assay: 48-hour IC50 by SRB, IMR90  lung fibroblasts
Type: cell-based, human
Settings: Homo sapiens, IMR-90, IMR90 immortalized lung fibroblasts
Description: as §1, §2

SMILES | IC50
CO[C@H]1NC(=O)c2ccc(Br)n2[C@@H]1Cc1c[nH]c(=O)n1C [(+)-39, (+)-O-methyl-pre-agelastatin A] | > 10000 nM

Same assay, conditions: IMR90 immortalized lung fibroblasts

SMILES | IC50
O=C1N[C@H]2[C@@H]3NC(=O)c4cc(Br)c(Br)n4[C@@H]3C[C@@]2(O)N1 [(−)-6, (−)-agelastatin F] | > 10000 nM
O=C1N[C@H]2[C@@H]3NC(=O)c4ccc(Br)n4[C@@H]3C[C@@]2(O)N1 [(−)-4, (−)-agelastatin D] | 2750 ± 600 nM

Tested on: Daudi
Assay: 48-hour IC50 by MTS, Daudi Burkitt's lymphoma cells
Type: cell-based, human
Settings: not given
Description: as §1, §3

SMILES | IC50
O=C1N[C@H]2[C@@H]3NC(=O)c4cc(Br)c(Br)n4[C@@H]3C[C@@]2(O)N1 [(−)-6, (−)-agelastatin F] | > 10000 nM
O=C1N[C@H]2[C@@H]3NC(=O)c4ccc(Br)n4[C@@H]3C[C@@]2(O)N1 [(−)-4, (−)-agelastatin D] | 202 ± 15 nM

Tested on: CEM
Assay: 48-hour IC50 by MTS, CEM acute lymphoblastic leukemia cells
Type: cell-based, human
Settings: not given
Description: as §1, §3

SMILES | IC50
O=C1N[C@H]2[C@@H]3NC(=O)c4cc(Br)c(Br)n4[C@@H]3C[C@@]2(O)N1 [(−)-6, (−)-agelastatin F] | > 10000 nM
O=C1N[C@H]2[C@@H]3NC(=O)c4ccc(Br)n4[C@@H]3C[C@@]2(O)N1 [(−)-4, (−)-agelastatin D] | 74 ± 25 nM
